Results: patent publication US11345713B2, “Compounds as modulators of TLR2 signaling” (Neuropore Therapies, inc., priority 2018, dated 2022)

How the values were obtained:
[1] = target: T1, human TLR2 (Pam2CSK4, TLR2/6 agonist) in HEK-Blue hTLR2 cells (Homo sapiens, UniProt O60603); assay: HEK-Blue hTLR2 antagonism assay (SEAP reporter) with Pam2CSK4 as agonist; type: cell-based; conditions: 2 h compound pre-incubation, approx. 3×EC50 Pam2CSK4, 18 h, SEAP OD 655 nm, background subtracted
T1 construct: host or cells: HEK-Blue hTLR2 (HEK-293)
Experimental: (§1) Synthetic diacylated lipoprotein (Pam2CSK4, TLR2/6 agonist) and synthetic triacylated lipoprotein (Pam3CSK4, TLR1/2 agonist) were obtained from InvivoGen and were dissolved in endotoxin-free water to a concentration 1 mg/mL, vortexed until complete solubilization, and stored in aliquots at −20° C. Prior to addition to cells, an aliquot of the dissolved ligand was vortexed shortly and then was diluted in medium to 25 ng/mL Pam2CSK4 or 1000 ng/mL Pam3CSK4. The EC50 of the agonists for each assay run was determined by using 3-fold dilutions of each agonist from the following starting concentrations: 5 ng/mL for Pam2CSK4, and 200 ng/mL for Pam3CSK4.
(§2) Test compounds were solubilized fresh to 10-20 mM stocks in DMSO and sonicated for 5-10 minutes in a water bath sonicator. Serial dilutions were prepared in DMSO, and then diluted in medium. The final concentration of DMSO used in the assay was 1%.
(§3) HEK-Blue hTLR2 reporter cells (InvivoGen) are HEK-293 cells stably expressing both the human TLR2 gene and a secreted embryonic alkaline phosphatase (SEAP) reporter construct downstream of NFκB promotor sites. HEK-Blue hTLR2 reporters were cultured according to manufacturer's protocol using Dulbecco's Modified Eagle Medium (DMEM; Gibco) containing 1× GlutaMax (Gibco), 10% heat-inactivated Fetal Bovine Serum (Gibco), Pen-Strep (50 U/mL penicillin, 50 μg/mL streptomycin, Gibco), 100 μg/mL Normocin (InvivoGen), and the selective antibiotic, 1× HEK-Blue Selection (InvivoGen). Quanti-Blue reagent (InvivoGen) for detection and quantification of secreted alkaline phosphatase was dissolved in 100 mL of endotoxin-free water, warmed to 37° C. for 30 minutes and then filtered using a 0.2 μm membrane.
(§4) On day 1, 50 μL of each test compound dilution in duplicates or a vehicle control was added to each well of a 96-well plate followed by addition of 150 μL of HEK-Blue hTLR2 cell suspension (1×10^5 cells/well) and incubated at 37° C./5% CO2 for 2 h. Next, 50 μL of an approximate 3×EC50 concentration of each agonist (Pam2CSK4 or Pam3CSK4) was added to the wells containing test compounds or the vehicle control. The plates were then incubated at 37° C./5% CO2 for 18 h. For each assay run, non-treated HEK-Blue hTLR2 cells were treated with serial dilutions of agonists to determine EC50 values for the respective run.
(§5) On day 2, secreted alkaline phosphatase (SEAP) activity was detected in cell culture supernatants. In brief, 20 μL was collected from each well and transferred to a 96-well plate. Next, 200 μL of Quanti-Blue detection reagent was added to each well. Plates were incubated at room temperature for 15 min and SEAP activity was assessed by spectrophotometer OD reading at 655 nm. […] The activities of the compounds against Pam2CSK4 and Pam3CSK4 are presented as IC50 values for the response from cells treated with agonists with the background signal subtracted.

[2] = target: T2, human TLR2 (Pam3CSK4, TLR1/2 agonist) in HEK-Blue hTLR2 cells (Homo sapiens, UniProt O60603); assay: HEK-Blue hTLR2 antagonism assay (SEAP reporter) with Pam3CSK4 as agonist; type: cell-based; conditions: 2 h compound pre-incubation, approx. 3×EC50 Pam3CSK4, 18 h, SEAP OD 655 nm, background subtracted
T2 construct: host or cells: HEK-Blue hTLR2 (HEK-293)
Experimental: as §1, §2, §3, §4, §5

T1 sequence (O60603 19-784 limits assumed): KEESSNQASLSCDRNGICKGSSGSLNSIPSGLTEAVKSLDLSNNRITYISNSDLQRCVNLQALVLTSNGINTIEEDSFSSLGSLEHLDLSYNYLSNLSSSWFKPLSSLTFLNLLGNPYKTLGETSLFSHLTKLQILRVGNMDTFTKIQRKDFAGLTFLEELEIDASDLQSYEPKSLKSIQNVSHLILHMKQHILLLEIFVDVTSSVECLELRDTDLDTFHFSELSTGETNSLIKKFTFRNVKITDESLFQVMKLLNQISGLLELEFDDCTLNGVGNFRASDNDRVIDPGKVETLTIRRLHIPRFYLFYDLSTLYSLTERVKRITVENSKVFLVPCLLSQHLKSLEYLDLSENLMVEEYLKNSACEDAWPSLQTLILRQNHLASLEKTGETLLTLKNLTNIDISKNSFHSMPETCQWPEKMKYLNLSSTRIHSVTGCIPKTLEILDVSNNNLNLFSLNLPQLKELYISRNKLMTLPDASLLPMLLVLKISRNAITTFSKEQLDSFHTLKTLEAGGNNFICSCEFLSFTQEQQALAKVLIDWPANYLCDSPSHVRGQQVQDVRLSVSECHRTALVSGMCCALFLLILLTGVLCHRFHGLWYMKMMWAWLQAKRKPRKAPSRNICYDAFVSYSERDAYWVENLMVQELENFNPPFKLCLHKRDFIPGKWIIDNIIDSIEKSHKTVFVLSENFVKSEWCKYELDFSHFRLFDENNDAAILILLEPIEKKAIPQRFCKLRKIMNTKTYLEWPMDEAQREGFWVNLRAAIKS
T2 sequence (O60603 19-784 limits assumed): as above

Row | SMILES | IC50 [1] [µM] | IC50 [2] [µM]
1 | Oc1c(F)cc(/C=C/c2ccc(N3CCCC3)cc2)cc1CNC1CC1 [compound 91, (E)-2-((cyclopropylamino)methyl)-6-fluoro-4-(4-(pyrrolidin-1-yl)styryl)phenol] | 30.6 | 82.1
2 | COc1cc(/C=C/c2ccc(N3CCCC3)cc2)cc(C=O)c1O [compound 48, (E)-2-hydroxy-3-methoxy-5-(4-(pyrrolidin-1-yl)styryl)benzaldehyde] | 1 | 0.6
3 | COc1cc(-c2cc3c(s2)CCN(CC2CC2)C3)cc(C=O)c1O [compound 17, 5-(5-(cyclopropylmethyl)-4,5,6,7-tetrahydrothieno[3,2-c]pyridin-2-yl)-2-hydroxy-3-methoxybenzaldehyde] | 2 | 2.1
4 | CN1CCc2sc(-c3cc(F)c(O)c(C=O)c3)cc2C1 [compound 18, 3-fluoro-2-hydroxy-5-(5-methyl-4,5,6,7-tetrahydrothieno[3,2-c]pyridin-2-yl)benzaldehyde] | 10.4 | 12.2
5 | COc1cc(/C=C/C(=O)c2ccccc2)cc(C=O)c1O [compound 33, (E)-2-hydroxy-3-methoxy-5-(3-oxo-3-phenylprop-1-en-1-yl)benzaldehyde] | 6.2 | 6.4
6 | COc1cc(-c2cc3c(s2)CCN(C(=O)C2CC2)C3)cc(C(=O)/C=C/c2ccccc2)c1O [compound 74, (E)-1-(5-(5-(cyclopropanecarbonyl)-4,5,6,7-tetrahydrothieno[3,2-c]pyridin-2-yl)-2-hydroxy-3-methoxyphenyl)-3-phenylprop-2-en-1-one] | 6.3 | 7
7 | O=Cc1cc(/C=C/c2ccc(N3CCCC3)cn2)cc(F)c1O [compound 87, (E)-3-fluoro-2-hydroxy-5-(2-(5-(pyrrolidin-1-yl)pyridin-2-yl)vinyl)benzaldehyde] | 3.9 | 3.3
8 | COc1cc(-c2cc3c(s2)CCN(C(C)C)C3)cc(C=O)c1O [compound 20, 2-hydroxy-5-(5-isopropyl-4,5,6,7-tetrahydrothieno[3,2-c]pyridin-2-yl)-3-methoxybenzaldehyde] | 11.2 | 10
9 | CCN1CCN(/N=C/c2cc(/C=C/c3ccc(N4CCCC4)cc3)cc(F)c2O)CC1 [compound 93, 2-((E)-((4-ethylpiperazin-1-yl)imino)methyl)-6-fluoro-4-((E)-4-(pyrrolidin-1-yl)styryl)phenol] | 24.5 | 3.2
10 | CC(C)(C)OC(=O)N1CCC(/C=C/c2cc(F)c(O)c(C=O)c2)CC1 [compound 31, tert-butyl (E)-4-(3-fluoro-5-formyl-4-hydroxystyryl)piperidine-1-carboxylate] | 3.8 | 6
11 | COc1cc(/C=C/c2ccc3c(c2)CCCO3)cc(C=O)c1O [compound 67, (E)-5-(2-(chroman-6-yl)vinyl)-2-hydroxy-3-methoxybenzaldehyde] | 1.7 | 1.2
12 | O=Cc1c(O)cc(/C=C/c2ccc(N3CCCC3)cc2)cc1F [compound 53, (E)-2-fluoro-6-hydroxy-4-(4-(pyrrolidin-1-yl)styryl)benzaldehyde] | 1.3 | 1.5
13 | COc1cc(/C=C/c2cccc(N3CCOCC3)c2)cc(C=O)c1O [compound 44, (E)-2-hydroxy-3-methoxy-5-(3-morpholinostyryl)benzaldehyde] | 3 | 3.2
14 | COc1cc(/C=C/c2ccc(N3CCCC3)cc2)cc(O)c1C=O [compound 52, (E)-2-hydroxy-6-methoxy-4-(4-(pyrrolidin-1-yl)styryl)benzaldehyde] | > 100 | > 100
15 | COc1cc(/C=C\c2ccc(N3CCOCC3)cc2)cc(C=O)c1O [compound 41, (Z)-2-hydroxy-3-methoxy-5-(4-morpholinostyryl)benzaldehyde] | 35.1 | 29.8
16 | COc1ccc(/C=C/c2cc(OC)c(O)c(C(C)=O)c2)cc1 [compound 9, (E)-1-(2-hydroxy-3-methoxy-5-(4-methoxystyryl)phenyl)ethan-1-one] | > 100 | > 100
17 | CC(C)(C)OC(=O)N1CCCc2cc(/C=C/c3cc(F)c(O)c(C=O)c3)ccc21 [compound 61, tert-butyl (E)-6-(3-fluoro-5-formyl-4-hydroxystyryl)-3,4-dihydroquinoline-1(2H)-carboxylate] | 1 | 0.4
18 | O=C1CN(/N=C/c2cc(/C=C/c3ccc(N4CCCC4)cc3)cc(F)c2O)C(=O)N1 [compound 88, 1-(((E)-3-fluoro-2-hydroxy-5-((E)-4-(pyrrolidin-1-yl)styryl)benzylidene)amino)imidazolidine-2,4-dione] | 11.2 | 7.9
19 | CN1CCN(/N=C/c2cc(/C=C/c3ccc(N4CCCC4)cc3)cc(F)c2O)CC1 [compound 76, 2-fluoro-6-((E)-((4-methylpiperazin-1-yl)imino)methyl)-4-((E)-4-(pyrrolidin-1-yl)styryl)phenol] | 0.4 | 0.5

Second part, the compound after the results:

Row | IC50 [1] [µM] | IC50 [2] [µM] | SMILES
20 | 29.5 | 29.6 | CCO/N=C/c1cc(/C=C/c2ccc(N3CCCC3)cc2)cc(F)c1O [compound 89, (E)-3-fluoro-2-hydroxy-5-((E)-4-(pyrrolidin-1-yl)styryl)benzaldehyde O-ethyl oxime]
21 | 7.4 | 9.3 | COc1cc(/C=C/c2ccc(C)nc2)cc(C=O)c1O [compound 26, (E)-2-hydroxy-3-methoxy-5-(2-(6-methylpyridin-3-yl)vinyl)benzaldehyde]
22 | 71.3 | 70.1 | COc1cc(/C=C\c2ccc(N3CCCC3)cc2)cc(C=O)c1O [compound 51, (Z)-2-hydroxy-3-methoxy-5-(4-(pyrrolidin-1-yl)styryl)benzaldehyde]
23 | 1.1 | 0.5 | CCN(CC)c1ccc(/C=C/c2cc(F)c(O)c(C=O)c2)cc1 [compound 64, (E)-5-(4-(diethylamino)styryl)-3-fluoro-2-hydroxybenzaldehyde]
24 | 3.2 | 1.7 | COc1ccc(/C=C/c2cc(C=O)c(O)c(OC)c2)cc1 [compound 1, (E)-2-hydroxy-3-methoxy-5-(4-methoxystyryl)benzaldehyde]
25 | 3.6 | 4.1 | COCCOc1ccc(/C=C/c2cc(F)c(O)c(C=O)c2)cc1 [compound 55, (E)-3-fluoro-2-hydroxy-5-(4-(2-methoxyethoxy)styryl)benzaldehyde]
26 | 1 | 0.3 | O=Cc1cc(/C=C/c2ccc(-c3ccccc3)cc2)cc(F)c1O [compound 37, (E)-5-(2-([1,1′-biphenyl]-4-yl)vinyl)-3-fluoro-2-hydroxybenzaldehyde]
27 | 0.9 | 0.4 | O=Cc1cc(/C=C/c2ccc(N3CCCCC3)cc2)cc(F)c1O [compound 70, (E)-3-fluoro-2-hydroxy-5-(4-(piperidin-1-yl)styryl)benzaldehyde]
28 | 0.9 | 0.3 | O=Cc1cc(/C=C/c2ccc(OCC3CC3)cc2)cc(F)c1O [compound 66, (E)-5-(4-(cyclopropylmethoxy)styryl)-3-fluoro-2-hydroxybenzaldehyde]
29 | 4.6 | 3.8 | COc1ccc(/C=C/c2cc(F)c(O)c(C=O)c2)cc1 [compound 10, (E)-3-fluoro-2-hydroxy-5-(4-methoxystyryl)benzaldehyde]
